Results as given in US20220162191A1, “SMALL MOLECULE MODULATORS OF IL-17” (LEO PHARMA A/S, priority 2019, published 2022).

Target: T1, human IL-17AA (Homo sapiens, UniProt Q16552)
T1 construct: host or cells: HEK (human embryonic kidney) cells
T1 sequence (Q16552 24-155) 1: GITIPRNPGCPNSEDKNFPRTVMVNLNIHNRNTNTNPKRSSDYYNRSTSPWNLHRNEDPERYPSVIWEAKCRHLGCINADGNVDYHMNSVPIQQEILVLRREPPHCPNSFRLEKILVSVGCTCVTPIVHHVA
T1 sequence (Q16552 24-155) 2: T1 sequence (Q16552 24-155) 1
Experiment: IL-8 release assay in human epithelial keratinocytes adult (HEKa)
Assay type: cell-based
Details: 3 ng/ml human IL-17AA + 10 ng/ml human TNFalpha, 68-72 h, IL-8 by HTRF, read-out: Rel EC50 L-8 release assay
Method in brief: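 Adult human keratinocytes in Epilife with HKGS minus hydrocortisone, treated with compound then stimulated with final 3 ng/ml HEK-derived human IL-17AA plus 10 ng/ml TNF-alpha for 68–72 h at 37 °C; TNF-alpha alone defines 100% inhibition. Secreted IL-8 by HTRF; relative IC50 and Emax from four-parameter fits.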

EC50 [nM] | Molecule
100 to 1000 | Cn1cncc1-c1ccc(NC(=O)C(Cc2cc(-c3ccnc(N4CC[C@H]4CO)c3)ccc2Cl)NC(=O)c2ccnn2C)cc1 (stereo partly drawn) [Example 188, N-[1-[[2-chloro-5-[2-[(2S)-2-(hydroxymethyl)azetidin-1-yl]-4-pyridyl]phenyl]methyl]-2-[4-(3-methylimidazol-4-yl)anilino]-2-oxo-ethyl]-2-methyl-pyrazole-3-carboxamide]
100 to 1000 | Cc1ncn(C)c1-c1ccc(NC(=O)[C@@H](NC(=O)OC2CC2)[C@@H]2CCCc3ccc(-c4ccnc(N5CCN(C)CC5)c4)cc32)cc1 [Example 32, cyclopropyl N-[(1S)-2-[4-(3,5-dimethylimidazol-4-yl)anilino]-1-[(1R)-7-[2-(4-methylpiperazin-1-yl)-4-pyridyl]tetralin-1-yl]-2-oxo-ethyl]carbamate]
100 to 1000 | Cn1cncc1-c1ccc(NC(=O)[C@H](Cc2cc(-c3cccc([C@@H]4COCCN4)c3)ccc2Cl)NC(=O)c2ccnn2C)cc1 [Example 216, N-[(1S)-1-[[2-chloro-5-[3-[(3R)-morpholin-3-yl]phenyl]phenyl]methyl]-2-[4-(3-methylimidazol-4-yl)anilino]-2-oxo-ethyl]-2-methyl-pyrazole-3-carboxamide]
100 to 1000 | C[C@@H]1CN(c2cc(-c3ccc(Cl)c(C[C@H](NC(=O)c4ccnn4C)C(=O)Nc4ccc(-c5cncn5C)cc4)c3)ccn2)CCN1 [Example 210, N-[(1S)-1-[[2-chloro-5-[2-[(3R)-3-methylpiperazin-1-yl]-4-pyridyl]phenyl]methyl]-2-[4-(3-methylimidazol-4-yl)anilino]-2-oxo-ethyl]-2-methyl-pyrazole-3-carboxamide]
> 1000 | CC(C)n1cc(-c2cccc(C(c3ccccc3)C(NC(=O)c3ccnn3C)C(=O)Nc3ccc(-c4cncn4C)cc3)c2)ccc1=O (single isomer, unassigned; diastereomer 3) [Example 233, N-[1-[[3-(1-isopropyl-6-oxo 3-pyridyl)phenyl]-phenyl-methyl]-2-[4-(3-methylimidazol-4-yl)anilino] 2-oxo-ethyl]-2-methyl-pyrazole-3-carboxamide (Diastereomer 3)]
100 to 1000 | Cc1ncn(C)c1-c1ccc(NC(=O)[C@H](Cc2cc(-c3cnn(C(C)(C)C#N)c3)ccc2Cl)NC(=O)c2ccnn2C)cc1 [Example 204, N-[(1S)-1-[[2-chloro-5-[1-(1-cyano-1-methyl-ethyl)pyrazol-4-yl]phenyl]methyl]-2-[4-(3,5-dimethylimidazol-4-yl)anilino]-2-oxo-ethyl]-2-methyl-pyrazole-3-carboxamide]
< 100 | Cc1n[nH]c(C)c1-c1ccc(NC(=O)[C@@H](NC(=O)C2(F)CC2)[C@@H]2CCCc3ccc(-c4ccnc(N5C[C@H]6C[C@@H]5CO6)c4)cc32)cc1 [Example 28, N-[(1S)-2-[4-(3,5-dimethyl-1H-pyrazol-4-yl)anilino]-1-[(1R)-7-[2-[(1R,4R)-2-oxa-5-azabicyclo[2.2.1]heptan-5-yl]-4-pyridyl]tetralin-1-yl]-2-oxo-ethyl]-1-fluoro-cyclopropanecarboxamide]
< 100 | Cc1nocc1C(=O)N[C@@H](Cc1cc(-c2ccc(=O)n(C(C)C)c2)ccc1Cl)C(=O)Nc1ccc(-c2ccnn2C)c(O)c1 [Example 71, N-[(1S)-1-[[2-chloro-5-(1-isopropyl-6-oxo-3-pyridyl)phenyl]methyl]-2-[3-hydroxy-4-(2-methylpyrazol-3-yl)anilino]-2-oxo-ethyl]-3-methyl-isoxazole-4-carboxamide]
< 100 | Cc1n[nH]cc1-c1ccc(NC(=O)C(NC(=O)c2ccnn2C)C(c2ccccc2)c2cccc(-c3ccc(=O)n(C(C)C)c3)c2)cc1 (single isomer, unassigned; diastereomer 2) [Example 236, N-[1-[[3-(1-isopropyl-6-oxo-3-pyridyl)phenyl]-phenyl-methyl]-2-[4-(3-methyl-1H-pyrazol-4-yl)anilino]-2-oxo-ethyl]-2-methyl-pyrazole-3-carboxamide (Diastereomer 2)]
100 to 1000 | CC(C)n1cc(-c2ccc3c(c2)[C@@H]([C@@H](NC(=O)OC(C)(C)C)C(=O)Nc2ccc(-c4cncn4C)cc2)CCC3)ccc1=O [Example 45, tert-butyl N-[(1R)-1-[(1S)-7-(1-isopropyl-6-oxo-3-pyridyl)tetralin-1-yl]-2-[4-(3-methylimidazol-4-yl)anilino]-2-oxo-ethyl]carbamate]
100 to 1000 | Cc1cnn(C)c1-c1ccc(NC(=O)[C@H](Cc2cc(-c3ccc(=O)n(C(C)C)c3)ccc2Cl)NC(=O)CCC(C)C)cc1 [Example 327, N-[(1S)-1-[[2-chloro-5-(1-isopropyl-6-oxo-3-pyridyl)phenyl]methyl]-2-[4-(2,4-dimethylpyrazol-3-yl)anilino]-2-oxo-ethyl]-4-methyl-pentanamide]
< 100 | Cc1ncn(C)c1-c1ccc(NC(=O)[C@@H](NC(=O)C2(F)CC2)[C@@H]2CCc3ccc(-c4ccnc(N5C[C@@H]6C[C@H]5CO6)c4)cc32)cc1O [Example 358, N-[(1S)-2-[4-(3,5-dimethylimidazol-4-yl)-3-hydroxy-anilino]-1-[(1R)-6-[2-[(1S,4S)-2-oxa-5-azabicyclo[2.2.1]heptan-5-yl]-4-pyridyl]indan-1-yl]-2-oxo-ethyl]-1-fluoro-cyclopropanecarboxamide]
100 to 1000 | Cn1cncc1-c1ccc(NC(=O)C(Cc2cc(-c3ccnc(N4CCC[C@@H]4CO)c3)ccc2Cl)NC(=O)c2ccnn2C)cc1 (stereo partly drawn) [Example 189, N-[1-[[2-chloro-5-[2-[(2R)-2-(hydroxymethyl)pyrrolidin-1-yl]-4-pyridyl]phenyl]methyl]-2-[4-(3-methylimidazol-4-yl)anilino]-2-oxo-ethyl]-2-methyl-pyrazole-3-carboxamide]
100 to 1000 | Cc1cnn(C)c1-c1ccc(NC(=O)[C@@H](NC(=O)c2ccnn2C)[C@@H](c2cccc(-c3cc(N4C[C@@H]5C[C@H]4CO5)ncn3)c2)C2CC2)cc1 [Example 351, N-[(1S)-1-[(R)-cyclopropyl-[3-[6-[(1S,4S)-2-oxa-5-azabicyclo[2.2.1]heptan-5-yl]pyrimidin-4-yl]phenyl]methyl]-2-[4-(2,4-dimethylpyrazol-3-yl)anilino]-2-oxo-ethyl]-2-methyl-pyrazole-3-carboxamide]
< 100 | Cc1cnn(C)c1-c1ccc(NC(=O)[C@@H](NC(=O)C2(F)CC2)[C@@H]2CCCc3ccc(-c4ccnc(N5C[C@@H]6C[C@H]5CO6)c4)cc32)cc1 [Example 398, N-[(1S)-2-[4-(2,4-dimethylpyrazol-3-yl)anilino]-1-[(1R)-7-[2-[(1S,4S)-2-oxa-5-azabicyclo[2.2.1]heptan-5-yl]-4-pyridyl]tetralin-1-yl]-2-oxo-ethyl]-1-fluoro-cyclopropanecarboxamide]
> 1000 | Cc1cnn(C)c1-c1ccc(NC(=O)[C@H](Cc2cc(-c3ccc(=O)n(C(C)C)c3)ccc2Cl)NC(=O)C(C)C2CC2)cc1 (stereo partly drawn) [Example 332, (2S)-3-[2-chloro-5-(1-isopropyl-6-oxo-3-pyridyl)phenyl]-2-(2-cyclopropylpropanoylamino)-[4-(2,4-dimethylpyrazol-3-yl)phenyl]propanamide]
< 100 | Cc1n[nH]c(C)c1-c1ccc(NC(=O)[C@@H](NC(=O)C2(F)CC2)[C@@H]2CCc3ccc(-c4ccnc(N5C[C@@H]6C[C@H]5CO6)c4)cc32)cc1 [Example 354, N-[(1S)-2-[4-(3,5-dimethyl-1H-pyrazol-4-yl)anilino]-1-[(1R)-6-[2-[(1S,4S)-2-oxa-5-azabicyclo[2.2.1]heptan-5-yl]-4-pyridyl]indan-1-yl]-2-oxo-ethyl]-1-fluoro-cyclopropanecarboxamide]
100 to 1000 | CN(C)c1cc(-c2ccc(Cl)c(CC(NC(=O)c3ccnn3C)C(=O)Nc3ccc(-c4cncn4C)cc3)c2)ccn1 (centres unmarked) [Example 162, N-[1-[[2-chloro-5-[2-(dimethylamino)-4-pyridyl]phenyl]methyl]-2-[4-(3-methylimidazol-4-yl)anilino]-2-oxo-ethyl]-2-methyl-pyrazole-3-carboxamide]
100 to 1000 | Cn1cncc1-c1ccc(NC(=O)[C@H](Cc2cc(-c3cccc([C@@H]4CNCCO4)c3)ccc2Cl)NC(=O)c2ccnn2C)cc1 [Example 221, N-[(1S)-1-[[2-chloro-5-[3-[(2R)-morpholin-2-yl]phenyl]phenyl]methyl]-2-[4-(3-methylimidazol-4-yl)anilino]-2-oxo-ethyl]-2-methyl-pyrazole-3-carboxamide]
> 1000 | Cc1ncn(C)c1-c1ccc(NC(=O)[C@@H](NC(=O)C2(F)CC2)C(C)c2cc(-c3ccc(=O)n(C(C)C)c3)ccc2Cl)cc1 (stereo partly drawn) [Example 52, N-[(1S)-2-[2-chloro-5-(1-isopropyl-6-oxo-3-pyridyl)phenyl]-1-[[4-(3,5-dimethylimidazol-4-yl)phenyl]carbamoyl]propyl]-1-fluoro-cyclopropanecarboxamide]

Molecule | EC50 [nM]
CC(C)n1cc(-c2ccc(Cl)c(CC(NC(=O)c3ccnn3C)C(=O)Nc3ccc(-c4cnnn4C)cc3)c2)ccc1=O (centres unmarked) [Example 65, N-[1-[[2-chloro-5-(1-isopropyl-6-oxo-3-pyridyl)phenyl]methyl]-2-[4-(3-methyltriazol-4-yl)anilino]-2-oxo-ethyl]-2-methyl-pyrazole-3-carboxamide] | > 1000
CC(C)n1cc(-c2ccc(Cl)c(CC(NC(=O)OC(C)(C)C)C(=O)Nc3ccc(-c4cnn[nH]4)cc3)c2)ccc1=O (centres unmarked) [Example 76, tert-butyl N-[1-[[2-chloro-5-(1-isopropyl-6-oxo-3-pyridyl)phenyl]methyl]-2-oxo-2-[4-(1H-triazol-5-yl)anilino]ethyl]carbamate] | > 1000
N-[(1S)-2-[6-chloro-3-(1-isopropyl- 6-oxo-3-pyridyl)cyclohexa-2,4-dien- 1-yl]-1-[[4-(3-methylimidazol-4- yl)phenyl]carbamoyl]propyl]-2- methyl-pyrazole-3-carboxamide [Example 54] | 100 to 1000
